Experimental data reported in patent US20250255304A1, “HIGHLY TRA[…] CONTROLLING COMPOSITION” (ZM Crop Protection Corporation, priority 2022, published 2025).

How the values were obtained:
Type in all cases: in vivo
[1] = system: Coptotermes formosanus Shiraki; experiment: Test Example 1: effect of agent on gypsum treated with test agent solution; settings: dicloromezotiaz 0.023%, imidacloprid 0.1%, fipronil 0.03% test agent solution on gypsum
Experimental: A test agent solution containing 0.023 parts of dicloromezotiaz was prepared by adding 99.875 parts of water to 0.125 parts of the aqueous suspension composition shown in Formulation Example 1.
In a comparative example, an aqueous suspension composition prepared by adding an agent solution, wherein 99 parts of water was added to 1 part of a flowable containing 10.0 parts of imidacloprid and which contained 0.1 parts of imidacloprid and a drug solution, wherein 299 parts of water was added to 1 part of a flowable containing 9.1 parts of fipronil and which contained 0.03 parts of fipronil, uniformly mixing same was used as a test agent solution of a comparative example.
As the imidacloprid formulation and the fipronil formulation, commercially available termite controlling agents were used and diluted solutions at practical agent concentrations thereof were used as test agent solutions.
Gypsum was cured and spread in a glass petri dish having a diameter of 90 mm, 15 ml of each of the test agent solution of the example and the test agent solution of the comparative example was uniformly dropped on the entire surface of the gypsum. Thereafter, ten workers of Coptotermes formosanus Shiraki were released into the petri dish and the petri dish was covered and left to stand in a thermostatic chamber (25° C./relative humidity 60%).
The number of abnormal termites and the number of dead termites among the released termites (Coptotermes formosanus Shiraki) were observed every one hour from immediately after the release of the termites (Coptotermes formosanus Shiraki) until ten hours passed and the total number of the abnormal termite rate and the dead termite rate was calculated as the abnormal or dead termite rate (%) according to [Expression 1] below and the rates of expression of the effects of the respective agents were compared. Each test agent was prepared in one petri dish as one plot and the test was carried out in two replicates.

[2] = system: Coptotermes formosanus Shiraki; experiment: Test Example 3: extirpation test with dust formulation using simulated termite trails
[3] = system: Coptotermes formosanus Shiraki; experiment: Test Example 2: primary transmission treatment effect
Experimental: (§1) A test agent solution containing 0.023 parts of dicloromezotiaz was prepared by adding 99.875 parts of water to 0.125 parts of the aqueous suspension composition shown in Formulation Example 1. As comparative examples, four types of commercially available neonicotinoid termite controlling agents and four types of slow-acting termite controlling agents shown in Table 2 were diluted with water at practical concentrations to prepare test agent solutions. The “agent concentration (%)” indicates the concentration of the active ingredient contained in each of the composition of the present invention and the termite controlling agents and the “test agent solution concentration (%)” indicates the concentration of the active ingredient in each of the prepared test agent solutions.
(§2) After 1.2 g of each of the test agent solutions of the example and the comparative examples diluted to a predetermined concentration and prepared was added to 4.8 g of soil, 6 g of the mixed soil was spread in a glass petri dish having a diameter of 50 mm and ten workers of Coptotermes formosanus Shiraki were released into the petri dish and exposed to the agent solution for 4 hours.

[4] = system: Coptotermes formosanus Shiraki; experiment: Test Example 2: secondary transmission treatment effect
Experimental: as §1, §2

SMILES: Cc1cccn2c(=O)c(-c3cc(Cl)cc(Cl)c3)c([O-])[n+](Cc3cnc(Cl)s3)c12 [Dicloromezotiaz, dicloromezotiaz]
- Abnormal or dead termite rate (%) ([1]; time elapsed 1 h): 0%
- Abnormal or dead termite rate (%) ([1]; time elapsed 2 h): 0%
- Abnormal or dead termite rate (%) ([1]; time elapsed 3 h): 0%
- Abnormal or dead termite rate (%) ([1]; time elapsed 4 h): 0%
- Abnormal or dead termite rate (%) ([1]; time elapsed 5 h): 0%
- Abnormal or dead termite rate (%) ([1]; time elapsed 6 h): 19%
- Abnormal or dead termite rate (%) ([1]; time elapsed 7 h): 37%
- Abnormal or dead termite rate (%) ([1]; time elapsed 8 h): 51%
- Abnormal or dead termite rate (%) ([1]; time elapsed 9 h): 78%
- Abnormal or dead termite rate (%) ([1]; time elapsed 10 h): 100%
- Abnormal or dead termite rate (%) ([2]; active ingredient concentration 0.10%, 1 h): 0%
- Abnormal or dead termite rate (%) ([2]; active ingredient concentration 0.10%, 2 h): 0%
- Abnormal or dead termite rate (%) ([2]; active ingredient concentration 0.10%, 3 h): 0%
- Abnormal or dead termite rate (%) ([2]; active ingredient concentration 0.10%, 4 h): 25%
- Abnormal or dead termite rate (%) ([2]; active ingredient concentration 0.10%, 5 h): 35%
- Abnormal or dead termite rate (%) ([2]; active ingredient concentration 0.10%, 6 h): 40%
- Abnormal or dead termite rate (%) ([2]; active ingredient concentration 0.10%, 7 h): 40%
- Abnormal or dead termite rate (%) ([2]; active ingredient concentration 0.10%, 1 day): 85%
- Abnormal or dead termite rate (%) ([2]; active ingredient concentration 0.10%, 2 days): 100%
- Abnormal or dead termite rate (%) ([2]; active ingredient concentration 0.10%, 3 days): 100%
- Abnormal or dead termite rate (%) ([2]; active ingredient concentration 0.10%, 7 days): 100%
- Abnormal or dead termite rate (%) ([2]; active ingredient concentration 0.25%, 1 h): 0%
- Abnormal or dead termite rate (%) ([2]; active ingredient concentration 0.25%, 2 h): 0%
- Abnormal or dead termite rate (%) ([2]; active ingredient concentration 0.25%, 3 h): 25%
- Abnormal or dead termite rate (%) ([2]; active ingredient concentration 0.25%, 4 h): 25%
- Abnormal or dead termite rate (%) ([2]; active ingredient concentration 0.25%, 5 h): 60%
- Abnormal or dead termite rate (%) ([2]; active ingredient concentration 0.25%, 6 h): 100%
- Abnormal or dead termite rate (%) ([2]; active ingredient concentration 0.25%, 7 h): 100%
- Abnormal or dead termite rate (%) ([2]; active ingredient concentration 0.25%, 1 day): 100%
- Abnormal or dead termite rate (%) ([2]; active ingredient concentration 0.25%, 2 days): 100%
- Abnormal or dead termite rate (%) ([2]; active ingredient concentration 0.25%, 3 days): 100%
- Abnormal or dead termite rate (%) ([2]; active ingredient concentration 0.25%, 7 days): 100%
- Abnormal or dead termite rate (%) ([2]; active ingredient concentration 0.5%, 1 h): 0%
- Abnormal or dead termite rate (%) ([2]; active ingredient concentration 0.5%, 2 h): 0%
- Abnormal or dead termite rate (%) ([2]; active ingredient concentration 0.5%, 3 h): 45%
- Abnormal or dead termite rate (%) ([2]; active ingredient concentration 0.5%, 4 h): 45%
- Abnormal or dead termite rate (%) ([2]; active ingredient concentration 0.5%, 5 h): 100%
- Abnormal or dead termite rate (%) ([2]; active ingredient concentration 0.5%, 6 h): 100%
- Abnormal or dead termite rate (%) ([2]; active ingredient concentration 0.5%, 7 h): 100%
- Abnormal or dead termite rate (%) ([2]; active ingredient concentration 0.5%, 1 day): 100%
- Abnormal or dead termite rate (%) ([2]; active ingredient concentration 0.5%, 2 days): 100%
- Abnormal or dead termite rate (%) ([2]; active ingredient concentration 0.5%, 3 days): 100%
- Abnormal or dead termite rate (%) ([2]; active ingredient concentration 0.5%, 7 days): 100%
- Abnormal or dead termite rate (%) ([2]; active ingredient concentration 1%, 1 h): 0%
- Abnormal or dead termite rate (%) ([2]; active ingredient concentration 1%, 2 h): 30%
- Abnormal or dead termite rate (%) ([2]; active ingredient concentration 1%, 3 h): 85%
- Abnormal or dead termite rate (%) ([2]; active ingredient concentration 1%, 4 h): 85%
- Abnormal or dead termite rate (%) ([2]; active ingredient concentration 1%, 5 h): 100%
- Abnormal or dead termite rate (%) ([2]; active ingredient concentration 1%, 6 h): 100%
- Abnormal or dead termite rate (%) ([2]; active ingredient concentration 1%, 7 h): 100%
- Abnormal or dead termite rate (%) ([2]; active ingredient concentration 1%, 1 day): 100%
- Abnormal or dead termite rate (%) ([2]; active ingredient concentration 1%, 2 days): 100%
- Abnormal or dead termite rate (%) ([2]; active ingredient concentration 1%, 3 days): 100%
- Abnormal or dead termite rate (%) ([2]; active ingredient concentration 1%, 7 days): 100%
- Abnormal or dead termite rate (%) ([3]; after 1 day, Table 3, dicloromezotiaz 0.023%, fipronil 0.03%, imidacloprid 0.10%, chlorantraniliprole 0.05% solution in soil): 100%
- Abnormal or dead termite rate (%) ([3]; after 1 day, Table 4, dicloromezotiaz 0.023%, chlorfenapyr 0.11%, clothianidin 0.05%, dinotefuran 0.20%, thiamethoxam 0.10%, broflanilide 0.03% solution in soil): 100%
- Abnormal or dead termite rate (%) ([3]; after 3 days, Table 3, dicloromezotiaz 0.023%, fipronil 0.03%, imidacloprid 0.10%, chlorantraniliprole 0.05% solution in soil): 100%
- Abnormal or dead termite rate (%) ([3]; after 3 days, Table 4, dicloromezotiaz 0.023%, chlorfenapyr 0.11%, clothianidin 0.05%, dinotefuran 0.20%, thiamethoxam 0.10%, broflanilide 0.03% solution in soil): 100%
- Abnormal or dead termite rate (%) ([3]; after 7 days, Table 3, dicloromezotiaz 0.023%, fipronil 0.03%, imidacloprid 0.10%, chlorantraniliprole 0.05% solution in soil): 100%
- Abnormal or dead termite rate (%) ([3]; after 7 days, Table 4, dicloromezotiaz 0.023%, chlorfenapyr 0.11%, clothianidin 0.05%, dinotefuran 0.20%, thiamethoxam 0.10%, broflanilide 0.03% solution in soil): 100%
- Abnormal or dead termite rate (%) ([3]; after 14 days, Table 3, dicloromezotiaz 0.023%, fipronil 0.03%, imidacloprid 0.10%, chlorantraniliprole 0.05% solution in soil): 100%
- Abnormal or dead termite rate (%) ([3]; after 14 days, Table 4, dicloromezotiaz 0.023%, chlorfenapyr 0.11%, clothianidin 0.05%, dinotefuran 0.20%, thiamethoxam 0.10%, broflanilide 0.03% solution in soil): 100%
- Abnormal or dead termite rate (%) ([3]; after 21 days, Table 3, dicloromezotiaz 0.023%, fipronil 0.03%, imidacloprid 0.10%, chlorantraniliprole 0.05% solution in soil): 100%
- Abnormal or dead termite rate (%) ([3]; after 21 days, Table 4, dicloromezotiaz 0.023%, chlorfenapyr 0.11%, clothianidin 0.05%, dinotefuran 0.20%, thiamethoxam 0.10%, broflanilide 0.03% solution in soil): 100%
- Abnormal or dead termite rate (%) ([4]; after 1 day, Table 5, dicloromezotiaz 0.023%, fipronil 0.03%, imidacloprid 0.10%, chlorantraniliprole 0.05% solution in soil): 8.9%
- Abnormal or dead termite rate (%) ([4]; after 1 day, Table 6, dicloromezotiaz 0.023%, chlorfenapyr 0.11%, clothianidin 0.05%, dinotefuran 0.20%, thiamethoxam 0.10%, broflanilide 0.03% solution in soil): 2.2%
- Abnormal or dead termite rate (%) ([4]; after 3 days, Table 5, dicloromezotiaz 0.023%, fipronil 0.03%, imidacloprid 0.10%, chlorantraniliprole 0.05% solution in soil): 83%
- Abnormal or dead termite rate (%) ([4]; after 3 days, Table 6, dicloromezotiaz 0.023%, chlorfenapyr 0.11%, clothianidin 0.05%, dinotefuran 0.20%, thiamethoxam 0.10%, broflanilide 0.03% solution in soil): 44%
- Abnormal or dead termite rate (%) ([4]; after 7 days, Table 5, dicloromezotiaz 0.023%, fipronil 0.03%, imidacloprid 0.10%, chlorantraniliprole 0.05% solution in soil): 91%
- Abnormal or dead termite rate (%) ([4]; after 7 days, Table 6, dicloromezotiaz 0.023%, chlorfenapyr 0.11%, clothianidin 0.05%, dinotefuran 0.20%, thiamethoxam 0.10%, broflanilide 0.03% solution in soil): 88%
- Abnormal or dead termite rate (%) ([4]; after 14 days, Table 5, dicloromezotiaz 0.023%, fipronil 0.03%, imidacloprid 0.10%, chlorantraniliprole 0.05% solution in soil): 91%
- Abnormal or dead termite rate (%) ([4]; after 14 days, Table 6, dicloromezotiaz 0.023%, chlorfenapyr 0.11%, clothianidin 0.05%, dinotefuran 0.20%, thiamethoxam 0.10%, broflanilide 0.03% solution in soil): 88%
- Abnormal or dead termite rate (%) ([4]; after 21 days, Table 5, dicloromezotiaz 0.023%, fipronil 0.03%, imidacloprid 0.10%, chlorantraniliprole 0.05% solution in soil): 92%
- Abnormal or dead termite rate (%) ([4]; after 21 days, Table 6, dicloromezotiaz 0.023%, chlorfenapyr 0.11%, clothianidin 0.05%, dinotefuran 0.20%, thiamethoxam 0.10%, broflanilide 0.03% solution in soil): 84%
